# Reference: article PMC7309560, “Discovery of Small Molecule Inhibitors Targeting the Sonic Hedgehog” (Frontiers in Chemistry, 2020)
# Like-named read-outs stand apart in the source and are kept apart here.
# How the values were obtained:
# ShhN-EGFP = molecular target: T1, ShhN-EGFP (Homo sapiens, UniProt Q15465); assay: Microscale thermophoresis (MST) binding
# T1 construct: PET-28(a)-human ShhN (Shh 24-197) plasmid; His (N); made in house; host or cells: Escherichia coli Rosetta (DE3)
# Protocol: Chuanmao Zhang. EGFP gene was subcloned into pET-28(a)-human ShhN vector to build ShhN-EGFP plasmids. All mutations were introduced by PCR and confirmed by sequencing with GENEWIZ (China).
# Measurements were performed using a Monolith NT. […] MST-optimized buffer (50 mM Tris·HCl, pH 7.4, 150 mM NaCl, 10 mM MgCl2, 0.1% Tween-20, 0.1% Pluronic-F127, 5% DMSO) was applied. Measurements were carried out using blue LED color with 20% LED power and 40% MST power. The concentration of ShhN-EGFP was adjusted according to the fluorescence. Mean values and standard deviations were calculated from experiments performed at least in triplicate. Nanotemper analysis software V1.5.41 was applied to analyze data.
# We used microscale thermophoresis (MST) to quantitatively measure binding constants between the compounds and ShhN (Table S5 and Figure S1). A ShhN-EGFP fusion protein was constructed, expressed, and purified from bacterial cells. In MST binding assays, ShhN-EGFP was kept at a constant concentration according to the fluorescence signal. Different concentrations of the molecules were tested and dissociation constants (Kd) were derived.
# [1] = tested on: Hh signaling pathway (8 × Gli-binding site luciferase reporter, Shh-LIGHT2 cells); assay: Dual-luciferase reporter assay in Shh-LIGHT2 cells; format: cell-based; conditions: for IC50: Shh Light2, 36 h, ShhN-conditioned medium, 36 h, mean ± SD for three independent experiments; for inhibition at 5 µM: read-out: Inhibition rate for cell assay at 5 μM
# Protocol: A dual-luciferase reporter assay was performed as previously described (Zhan et al., [2014]; Kong et al., [2015]). Shh-LIGHT2 cells, an Hh activity reporter cell line derived from NIH-3T3 cells by stably expressing 8 × Gli-binding site luciferase reporter (8 × GBS-luciferase) plasmid provided by Sasaki et al. ([1999]) and pRL-Renilla luciferase plasmid, were seeded into 96-well plates. After 24 h, ShhN-conditioned medium (ShhN CM) was added, and cells were exposed to molecules. The luciferase activities of cells were measured 36 h later with a Dual-Luciferase Reporter Assay System (E1960, Promega), according to the manufacturer's instructions, in a luminometer (Molecular Devices, Sunnyvale, CA). The firefly luciferase values were normalized to the Renilla luciferase activities, and IC50 values were fitted with the Hill equation with OriginPro 9.
# We further tested the 45 Shh-binding compounds to assess their effects on the Hh signaling pathway. […] Compounds with similar framework were merged, resulting in seven hits.
# All 22 derivatives of 7 were tested at 5 μM with the dual-luciferase reporter cell assay (Table S6).
# ShhN = molecular target: T2, ShhN (Homo sapiens, UniProt Q15465); assay: NanoDSF thermal stability; format: binding; conditions: ShhN 0.2 mg/mL
# T2 construct: PET-28(a)-human ShhN (Shh 24-197) plasmid; His (N); made in house; host or cells: Escherichia coli Rosetta (DE3)
# Protocol: Measurements were performed using a Prometheus NT.48 instrument (NanoTemper Inc., Germany). ShhN was diluted to 0.2 mg/mL in buffer contained 10 mM HEPES, pH 7.4, 150 mM NaCl, and 5% DMSO. Measurements were carried out using 70% power with standard Prometheus NT.48 capillaries. The heating was 1.0°C/min from 20 to 95°C.
# To gain further insight into the effects of inhibitors against ShhN, a NanoDSF experiment was conducted.
# [2] = tested on: Gli1 mRNA expression in Ptch+/−p53−/− medulloblastoma cells; assay: Real-time PCR of Gli1 mRNA in Ptch+/-p53-/- medulloblastoma cells; format: cell-based, mice; conditions: RT-qPCR, 36 h exposure, normalized to GUSB
# Protocol: Ptch^+/−p53^−/− medulloblastoma cells were cultivated from spontaneous medulloblastoma developed by ptch^+/−; p53^−/− mice. All procedures were preapproved by the Animal Care and Use Committee of Fudan University and performed according to institutional policies. Briefly, medulloblastoma tissues were mechanically minced and digested by collagenase. The cells were routinely cultured using Neurobasal A medium (Invitrogen) plus B-27 supplement (Invitrogen), EGF 20 ng/mL (Invitrogen), bFGF 20 ng/mL (Invitrogen), non-essential amino acids, N-acetylcysteine 60 μg/mL. GDC-0449 was purchased from Biovision (Milpitas, CA). […]
# Total RNA was extracted from cells using an RNAiso Plus Kit (TaKaRa, Dalian, China) according to the manufacturer's instructions and processed directly to cDNA by reverse transcription with a SuperScript III Kit (TaKaRa, Dalian, China). Semi-quantitative PCR amplification was conducted using Stratagene mx3005p (Agilent). All quantitative PCR amplifications were performed in triplicate with a SYBR Green Kit (TaKaRa, Dalian, China) in an iCycleriQ system (Bio-Rad, Hercules, CA). […]
# Levels of the Shh-induced transcription factor Gli1 are higher in Ptch^+/−p53^−/− medulloblastoma from mice than in control tissues as a result of increased Hh signaling activity (Wetmore et al., [2001]). […] We measured the expression of Gli1 mRNA using RT-qPCR (Figure 2). […]
# Shh = Shh inhibitory activity in cellular assays, ref Stanton et al., 2009 (Table 1 prints ref. 14), cited from earlier work
# [3] = MST, ShhN-EGFP, mean±SD for three independent experiments, read-out: Kd
# T1 sequence (Q15465 24-197): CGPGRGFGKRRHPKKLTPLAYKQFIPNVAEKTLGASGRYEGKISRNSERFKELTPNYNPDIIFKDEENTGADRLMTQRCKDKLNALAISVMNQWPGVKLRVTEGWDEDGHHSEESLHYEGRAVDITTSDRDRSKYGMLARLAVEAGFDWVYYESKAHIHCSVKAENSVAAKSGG
# T2 sequence (Q15465 24-197): as above
SMILES,IC50 [1],inhibition at 5 µM [1],further results
Cc1cc(C)c(CSC2=NCCN2)c(C)c1CSC1=NCCN1 [Compound 1],2300 ± 200 nM,–,Kd (ShhN-EGFP; [3]): 7000 ± 800 nM
OC(CNCc1ccc2c(c1)OCO2)COc1ccc(-c2csnn2)cc1 (stereo not drawn) [Compound 2],1700 ± 100 nM,–,Kd (ShhN-EGFP): 8400 ± 900 nM
c1ccc(COC(CNC2CCCCC2)CNC2CCCCC2)cc1 [Compound 3],2200 ± 200 nM,–,Kd (ShhN-EGFP; [3]): 3100 ± 300 nM
CCN(CC)S(=O)(=O)c1ccc(C(=O)Nc2sc3c(c2C(N)=O)CCN(C)C3)cc1 [Compound 4],2700 ± 200 nM,–,MST binding signal / dose-response (in words) (ShhN-EGFP; ShhN-EGFP): did not reach saturation
OCCCNCC(O)Cn1c2ccc(Br)cc2c2cc(Br)ccc21 (stereo not drawn) [Compound 5],2000 ± 300 nM,–,Kd (ShhN-EGFP): 4500 ± 600 nM
CCOC(=O)c1c(C)n(-c2ccc(C)cc2)c2ccc(OCC(O)CNCCCO)cc12 (stereo not drawn) [Compound 6],1400 ± 400 nM,–,Kd (ShhN-EGFP; [3]): 5800 ± 500 nM
Nc1nc(NCCCN2CCOCC2)nc(NCc2ccco2)c1[N+](=O)[O-] [Compound 7],2200 ± 300 nM,–,Kd (ShhN-EGFP; [3]): 6200 ± 600 nM
Nc1nc(NCC2CCCO2)nc(NCc2ccco2)c1[N+](=O)[O-] (stereo not drawn) [Compound 7_2d2],3200 ± 700 nM,94 ± 4%,–
Nc1nc(NCCN2CCOCC2)nc(NCc2ccco2)c1[N+](=O)[O-] [Compound 7_2d3],2600 ± 300 nM,68 ± 12%,–
CCOc1ccc(Nc2nc(N)c([N+](=O)[O-])c(NCc3ccco3)n2)cc1 [Compound 7_2d6],2000 ± 800 nM,97 ± 7%,–
Nc1nc(Nc2ccc(Cl)cc2)nc(NCc2ccco2)c1[N+](=O)[O-] [Compound 7_2d7],2100 ± 200 nM,102 ± 3%,–
CS(=O)(=O)c1ccc(C(=O)Nc2ccc(Cl)c(-c3ccccn3)c2)c(Cl)c1 [GDC-0449],–,–,Relative mRNA expression of Gli1 (effect in words) [2]: positive control for inhibition of the expression of Gli1 mRNA

# Further lines, with some results ahead:
IC50 [1],SMILES,inhibition at 5 µM [1],further results
2400 ± 400 nM,Nc1nc(Nc2cccc(F)c2)nc(NCc2ccco2)c1[N+](=O)[O-] [Compound 7_2d8],101 ± 8%,–
5900 ± 1700 nM,Nc1nc(Nc2ccccc2F)nc(NCc2ccco2)c1[N+](=O)[O-] [Compound 7_2d9],94 ± 3%,–
1600 ± 600 nM,c1ccc(Nc2nc(NC3CCCCCC3)nc3c2cnn3-c2ccccc2)cc1 [Compound 7_3d2],93 ± 1%,–
~400 nM,CCN(CC)CCNc1nc(Nc2cccc(Cl)c2)c2cnn(-c3ccccc3)c2n1 [Compound 7_3d3],107 ± 1%,Thermal stability of ShhN (in words) (ShhN): improved the thermal stability of ShhN better than 7
600 ± 100 nM,CCN1CCN(c2nc(Nc3cccc(Cl)c3)c3cnn(-c4ccccc4)c3n2)CC1 [Compound 7_3d4],105 ± 5%,–
1200 ± 200 nM,N#Cc1c(N)nc(NCCCN2CCOCC2)nc1-c1ccc(Cl)cc1 [Compound 7_3d11],–,–
4400 ± 900 nM,O=C(C[C@@H]1C/C=C/CCC(=O)O[C@H](c2ccccc2)CNC1=O)NCc1ccc(Cl)cc1 [Robotnikinin],–,IC50 (Shh): 15000 nM; IC50 (Shh; listed as robotnikinin): ~15000 nM; Relative mRNA expression of Gli1 (effect in words) [2]: did not inhibit Gli1 mRNA expression
